Experimental data as given in US12275734B1, “Pleuromutilin onium salt derivative containing a 3H-imidazo[4,5-c]pyridine side chain, and a preparation method and application thereof” (SHAANXI UNIVERSITY OF SCIENCE AND TECHNOLOGY, priority 2024, dated 2025).
≈ marks a conversion by molar mass, not a printed value. Where two headings read alike, the source gives them in different places.

Assays:
Assay type in all cases: cell-based
E.coli CMCC 44103 = test: MIC, broth microdilution; details: Escherichia coli
Outline: (§1)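 Broth microdilution in Mueller–Hinton broth: compounds two-fold serially diluted from a 2560 μg/mL stock (1% DMSO), inoculum 5×10^5 CFU/mL final from log-phase cultures, incubation 37 °C for 24 h. MIC taken as the lowest concentration inhibiting growth.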

A. baumannii ATCC 19606 = test: MIC, broth microdilution; details: Acinetobacter baumannii
Outline: as §1

[1] = system: Methicillin-resistant S. aureus ATCC 33591; test: MIC, broth microdilution; details: Staphylococcus aureus, ATCC 33591 / MRSA, read-out: Minimum inhibitory concentration MRSA^b
Outline: as §1

E. coli ATCC 25922 = test: MIC, broth microdilution; details: Escherichia coli
Outline: as §1

[2] = system: Methicillin-resistant S. aureus ATCC 43300; test: MIC, broth microdilution; details: Staphylococcus aureus, ATCC 43300 / MRSA, read-out: Minimum inhibitory concentration MRSA^c
Outline: as §1

S. aureus ATCC 29213 = test: MIC, broth microdilution; details: Staphylococcus aureus
Outline: as §1

[3] = system: Methicillin-resistant S. epidermidis ATCC 51625; test: MIC, broth microdilution; details: Staphylococcus epidermidis, ATCC 51625 / MRSE, read-out: Minimum inhibitory concentration MRSE^e
Outline: as §1

S. enterica ATCC14028 = test: MIC, broth microdilution; details: Salmonella enterica
Outline: as §1

[4] = system: M. synoviae WVU1853, NCTC10124; test: Anti-mycoplasma MIC; details: Mycoplasmopsis synoviae
Procedure: (§2) The antimycoplasma activity was quantified using the […]. Retapamulin was used as a positive control to test the minimum inhibitory concentration of 3H-imidazo[4,5-C]pyridine pleuromutilin onium salt derivatives.
(§3) (1) Preparation of KM2 medium: Weigh 38.9 g of KM2 medium, add it to 800 mL of distilled water, boil to dissolve, sterilize under high pressure at 115° C. for 20 min, and set aside.
(§4) (2) Preparation of bacterial stock solution: Take 0.5 mL of Mhp-J^a, Mhp-LH^b, Mhr-BTS-7^c, MG-R^d, MS-WVU1853^e, MP-M129^f, CP-AR-39^g, CP-CWL-029^h, CP-TW-183^i, MH-PG-21^j, MG-G37^k cultured to the logarithmic phase and transfer it to 4.5 mL of KM2 liquid culture medium. When the culture medium turns yellow, divide each bacterium into 0.5 mL per tube and store it at −70° C. as bacterial stock solution.
(§5) (3) Determination of bacterial titer (color change unit, CCU): Take out the bacterial stock solution stored at −70° C., melt and balance to room temperature, add 0.18 mL KM2 medium to each well of the middle 4 rows of the 96-well plate (i.e. 4 parallels), take 0.02 mL and add it to the first column, dilute 10 times to 10^−11, and set up a negative control containing only KM2 medium (12th column). After sealing, put it in a 37° C. incubator and observe the results every day. The highest dilution at which the color of the medium changes is the CCU/mL of the strain.
(§6) Take an appropriate amount of seed bacterial solution and dilute it to 10^4 CCU/mL in turn according to its titer. Add drugs of each dilution in a 96-well plate in turn, and then add an equal amount of diluted bacterial solution. Set 200 μL of diluted mycoplasma bacterial solution as a positive control, 200 μL of KM2 liquid culture medium as a negative control, and set a solvent control group (10 μL of drug solvent+190 μL of mycoplasma bacterial solution). Each experiment is set up in 3 parallels. After all culture plates are sealed, they are cultured at 37° C., observed daily, and the final MIC value is recorded.

[5] = system: C. pneumoniae AR39, ATCC53592; test: Anti-mycoplasma MIC; details: Chlamydia pneumoniae
Procedure: as §2, §3, §4, §5, §6

[6] = system: M. hyopneumoniae J, NCTC10110; test: Anti-mycoplasma MIC; details: Mesomycoplasma hyopneumoniae
Procedure: as §2, §3, §4, §5, §6

Work on C=C[C@]1(C)C[C@@H](OC(=O)CS[C@@H]2C[C@H]3CC[C@@H](C2)N3C)[C@]2(C)[C@H](C)CC[C@]3(CCC(=O)[C@H]32)[C@@H](C)[C@@H]1O [Retapamulin, reference compound] yielded an MIC (E.coli CMCC 44103; CMCC44103, read-out: Minimum inhibitory concentration E.c.^i) of 32 µg/mL (≈ 61.8 µM), an MIC (A. baumannii ATCC 19606; ATCC19606, read-out: Minimum inhibitory concentration A.b.^f) of 4 µg/mL (≈ 7.73 µM) and an MIC [1] of 32 µg/mL (≈ 61.8 µM). It also gave an MIC (E. coli ATCC 25922; ATCC25922, read-out: Minimum inhibitory concentration E.c.^h) of 32 µg/mL (≈ 61.8 µM), an MIC [2] of 16 µg/mL (≈ 30.9 µM) and an MIC (S. aureus ATCC 29213; ATCC29213, read-out: Minimum inhibitory concentration S.a.^d) of 4 µg/mL (≈ 7.73 µM). For the same compound, the MIC [3] was 32 µg/mL (≈ 61.8 µM), the MIC (S. enterica ATCC14028; ATCC14028, read-out: Minimum inhibitory concentration S.e.^g) was 128 µg/mL (≈ 247 µM) and the MIC ([4]; NCTC10124, read-out: Antimycoplasma activity (MIC) MS-WVU1853^e) was 2 µg/mL (≈ 3.86 µM). For the same compound, the MIC ([5]; ATCC53592, read-out: Antimycoplasma activity (MIC) CP-AR-39^g) was 0.125 µg/mL (≈ 0.241 µM) and the MIC ([6]; NCTC10110, read-out: Antimycoplasma activity (MIC) Mhp-J^a) was 0.03 µg/mL (≈ 0.0579 µM).

In the case of C=C[C@]1(C)C[C@@H](OC(=O)CSc2nc3cc[n+](Cc4ccc(C)cc4)cc3[nH]2)[C@]2(C)[C@H](C)CC[C@]3(CCC(=O)[C@H]32)[C@@H](C)[C@@H]1O [Compound i, 5-(4-methylbenzyl)-2-((2-(((3aR,4R,5R,7S,8S,9R,9aS,12R)-8-hydroxy-4,7,9,12-tetramethyl-3-oxo-7-vinyldecahydro-4,9a-propancyclopenta[8]cyclo-5-yl)oxy)-2-oxoethyl)thio)-3H-imidazo[4,5-C]pyridine-5-ium], the MIC (E.coli CMCC 44103; CMCC44103, E.coli CMCC 44103, read-out: Minimum inhibitory concentration E.c.^i) is reported as 0.125 µg/mL, the MIC (A. baumannii ATCC 19606; ATCC19606, A. baumannii ATCC 19606, read-out: Minimum inhibitory concentration A.b.^f) is reported as 0.25 µg/mL and the MIC ([1]; Methicillin-resistant S. aureus ATCC 33591) is reported as 0.125 µg/mL. The MIC (E. coli ATCC 25922; ATCC25922, E. coli ATCC 25922, read-out: Minimum inhibitory concentration E.c.^h) was 0.125 µg/mL, the MIC ([2]; Methicillin-resistant S. aureus ATCC 43300) was 0.0625 µg/mL and the MIC (S. aureus ATCC 29213; ATCC29213, S. aureus ATCC 29213, read-out: Minimum inhibitory concentration S.a.^d) was 0.0625 µg/mL. It also gave an MIC ([3]; Methicillin-resistant S. epidermidis ATCC 51625) of 0.0625 µg/mL, an MIC (S. enterica ATCC14028; S. enterica ATCC14028, read-out: Minimum inhibitory concentration S.e.^g) of 0.25 µg/mL and an MIC ([4]; NCTC10124, M. synoviae WVU1853, read-out: Antimycoplasma activity (MIC) MS-WVU1853^e) of 0.015 µg/mL. It also gave an MIC ([5]; ATCC53592, C. pneumoniae AR39, read-out: Antimycoplasma activity (MIC) CP-AR-39^g) of 0.002 µg/mL and an MIC ([6]; NCTC10110, M. hyopneumoniae J, read-out: Antimycoplasma activity (MIC) Mhp-J^a) of 0.02 µg/mL.
